Key:
[1] = system: DCAMKL-1; test: siRNA knockdown of DCAMKL-1 in AsPC-1 pancreatic cancer cells, real-time RT-PCR; assay type: cell-based, human; conditions: AsPC-1 cells
Procedure: Cell Culture: AsPC-1 and BxPC3 human pancreatic adenocarcinoma cell lines were obtained from the American Type Culture Collection and grown in Dulbecco's modified Eagle medium (DMEM) supplemented with 10% fetal bovine serum and 100 U/mL penicillin-streptomycin in a humidified chamber at 37° C. with 5% CO2.
Silencer RNA: DCAMKL-1 small interfering RNA (siRNA) (si-DCAMKL-1) sequence targeting the coding region of DCAMKL-1 (accession No. NM_004734; SEQ ID NO:1) ([…]tt (SEQ ID NO:3)) and scrambled siRNAs (si-Scr) not matching any of the human genes were obtained (Ambion Inc, Austin, Tex.) and transfected using siPORT™ NeoFX™ (Ambion, Inc).
Real-time Reverse Transcription-Polymerase Chain Reaction Analyses: Total RNA isolated from human pancreatic cancer cells or cells sorted from normal mouse pancreas were subjected to reverse transcription with Superscript II RNase H-Reverse Transcriptase and random hexanucleotide primers (Invitrogen, Carlsbad, Calif.). The complementary DNA (cDNA) was subsequently used to perform real-time polymerase chain reaction (PCR) by SYBR chemistry (SYBR Green I; Molecular Probes, Eugene, Oreg.) for specific transcripts using gene specific primers and Jumpstart Taq DNA polymerase (Sigma—Aldrich, St. Louis, Mo.). […] The changes in mRNA were expressed as fold change relative to control with ±SEM value.
miRNA Analysis: total RNA isolated from human pancreatic cancer cell lines or cells sorted from normal mouse pancreas was subjected to reverse transcription with Superscript II RNase H-Reverse Transcriptase and random hexanucleotide primers (Invitrogen). The cDNA was subsequently used to perform real-time PCR by SYBR chemistry (SYBR Green I; Molecular Probes) for pri-let-7a, pri-miR-144 and pri-miR-200a transcripts using specific primers and Jumpstart Taq DNA polymerase (Sigma—Aldrich). […] The changes in pri-miRNA were expressed as fold change relative to control with ±SEM values.

[2] = system: let-7a miRNA; test: pLet7a-Luc luciferase reporter gene assay in HCT116 cells; assay type: cell-based, human; conditions: normalized to Renilla luciferase
Procedure: Luciferase reporter gene assay. pLet7a-Luc reporter vector contains a let-7a miRNA specific binding site at the 3′UTR of the firefly (Photinus pyralis) luciferase gene obtained from Signosis Inc (FIG. 26). HCT116 and SW480 cells were transfected with the pLet7a-Luc reporter vector, Renilla luciferase expressing plasmid pRL-TK (Promega) along with DCAMKL-1 or scrambled siRNA using Transfectol™ (Ambion Inc.). Luciferase activity was determined as per the manufacturer's instructions (Dual-Luciferase Reporter Assay System; Promega) using a Monolight 2010 luminometer (Analytical Luminescence Laboratory, San Diego, Calif.) as described earlier [Stadler et al., 2008; Sossey-Alaoui et al., 1999]. The activity, normalized to Renilla Luciferase activity, is presented as relative luciferase units relative to control with ±SEM values. Assays were performed in triplicate wells and experiments were repeated 3 times.

[3] = system: miR-144 miRNA; test: pMiR-144-Luc luciferase reporter gene assay in AsPC-1 cells; assay type: cell-based, human
Source text: Luciferase Reporter Gene Assay: pLet7a-Luc reporter vector contains a let-7a miRNA specific binding site at the 3′ UTR of the firefly (Photinus pyralis) luciferase gene, pMiR-144-Luc reporter vector containing miR-144 miRNA specific binding site at the 3′UTR of the firefly luciferase gene and KRAS-Luc reporter vector containing specific binding sites for let-7 family members at the 3′UTR of the firefly luciferase gene were obtained from Signosis, Inc. (Sunnyvale, Calif.). Human pancreatic cancer cell lines were transfected with the pLet7a-Luc, pMiR-144-Luc and KRAS-Luc reporter vectors separately with Renilla luciferase expressing plasmid pRL-TK (Promega) along with DCAMKL-1, or scrambled siRNA-using siPORT™ NeoFX™ transfection reagent (Ambion, Inc.). Luciferase activity was determined as per the manufacturer's instructions (Dual Luciferase Reporter Assay System; Promega) using a BioTek Synergy HT (Winooski, Vt.) as described herein above. The activity, normalized to Renilla luciferase activity, is presented as relative luciferase units relative to control with ±SEM values. Assays were performed in triplicate wells, and experiments were repeated 3 times.

[4] = system: HCV subgenomic replicon; test: HCV replication in GS5 cells (Huh7.5 with HCV subgenomic replicon); assay type: cell-based, hepatitis C virus; conditions: 48 hours
Procedure: FIG. 61 illustrates that DCAMKL-1 is required for the HCV replication. A. siRNA against DCAMKL-1 (Si-DCAMKL1, 50 nM and 100 nM) or scrambled siRNA (SCR, 100 nM) were transfected into GS5 cells. Total RNAs were extracted and subjected to real-time quantitative PCR. The levels of HCV and DCAMKL-1 RNAs were considered arbitrary as one unit in untransfected GS5 cells (Cont). Actin mRNA in each sample was used as internal control for PCR. B. Western blot analysis of siRNAs tranfected and untransfected samples as indicated.
Induction of putative stem cell/pluripotency factors by HCV: Normal adult hepatocytes are fully differentiated cells and lack expression of pluripotency factors. However, these cells can be induced to proliferate rapidly after partial hepatectomy and can also be reprogrammed into stem-like cells by forced expression of a cocktail of transcription factors. Thus, the impact of HCV on expression pattern of stem/progenitor cell markers was investigated in GS5 cells, which are derived from hepatoma cell line (Huh7.5) and support constitutive replication of a subgenomic HCV replicon under G418 selection. The replicon expresses HCV nonstructural proteins NS3 through NS5B of the HCV-1a strain and green florescent protein (GFP)-NS5A chimera. Total lysates from parent Huh7.5 and GS5 cells were subjected to Western blot analysis (FIG. 59).
Putative intestinal stem cell marker DCAMKL1 is required for the HCV replication: The eccentric, punctate staining of HCV replication complexes consisting of most of the nonstructural proteins and cellular factors has been a puzzling question. It is known that these replication complexes associate with microtubules in order to replicate the HCV RNA. The DCAMKL1 protein, which binds and polymerizes tubulin into microtubule filaments, is considered as a putative marker for quiescent stem cells in the intestine, and its expression is increased in cancer stem cells. During confocal microscopy, most DCAMKL1 localization was consistently observed in the area containing replication complexes (indicated by NS5A-GFP) and high concentration of microtubules (FIG. 60). The perinuclear co-localization of DCAMKL1 with the NS5A-GFP (indicated by yellow stain) was also observed.

DCAMKL-1, sequence (O15075 other isoform, or with tags, fused parts or gaps): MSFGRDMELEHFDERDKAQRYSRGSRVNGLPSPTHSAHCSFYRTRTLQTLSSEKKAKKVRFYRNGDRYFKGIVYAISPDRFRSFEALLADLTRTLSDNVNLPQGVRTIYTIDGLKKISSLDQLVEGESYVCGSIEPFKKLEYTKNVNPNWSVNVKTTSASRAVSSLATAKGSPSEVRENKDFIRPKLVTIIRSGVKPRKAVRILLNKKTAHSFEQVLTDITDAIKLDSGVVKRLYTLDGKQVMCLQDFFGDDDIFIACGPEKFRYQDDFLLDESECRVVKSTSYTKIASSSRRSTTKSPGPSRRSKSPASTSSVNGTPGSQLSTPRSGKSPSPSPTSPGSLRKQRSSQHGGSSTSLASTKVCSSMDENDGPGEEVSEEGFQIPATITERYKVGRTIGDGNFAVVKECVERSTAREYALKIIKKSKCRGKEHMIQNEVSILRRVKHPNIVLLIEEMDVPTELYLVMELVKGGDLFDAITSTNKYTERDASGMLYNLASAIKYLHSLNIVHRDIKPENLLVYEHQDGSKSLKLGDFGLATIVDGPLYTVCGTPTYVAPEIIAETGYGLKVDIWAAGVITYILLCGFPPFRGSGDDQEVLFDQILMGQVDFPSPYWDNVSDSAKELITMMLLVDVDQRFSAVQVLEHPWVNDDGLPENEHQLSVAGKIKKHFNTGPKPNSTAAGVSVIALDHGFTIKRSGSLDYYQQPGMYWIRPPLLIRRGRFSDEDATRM

si-DCAMKL-1: siRNA targeting the coding region of DCAMKL-1 (NM_004734), sequence GGGAGUGAGAACAAUCUAC (SEQ ID NO:3) (chemistry not given here; listed as Homo sapiens)
E-cadherin expression [1]: upregulation | Notch-1 expression [1]: significant and a dose dependent downregulation | Slug mRNA expression [1]: downregulation | Snail mRNA expression [1]: downregulation | Twist mRNA expression [1]: downregulation | ZEB1 expression [1]: downregulation | ZEB2 expression [1]: downregulation | c-Myc expression [1]: significant and a dose dependent downregulation | pri-miR-200a expression [1]: upregulation | increase in pri-miR-144 miRNA expression ([1]; compared to control and siSCR): 2.5 fold | reduction of c-Myc mRNA expression ([1]; compared to control and siSCR): 50% | reduction in KRAS mRNA expression ([1]; compared to control or siSCR): 45% | reduction in Notch-1 mRNA ([1]; compared to control or siSCR): 50% | DCAMKL-1 mRNA expression ([1]; compared to siSCR or untreated): decreases | DCAMKL-1 protein ([1]; compared to siSCR or untreated): decreases | induction of pri-let-7a miRNA ([1]; real-time RT-PCR): 3 fold | luciferase activity (let-7a binding site at 3' UTR) [2]: dose dependent reduction | luciferase activity (miR-144 binding site in 3' UTR) [3]: dose-dependent reduction | NS5B polymerase level ([4]; Western blot): decreases | HCV RNA level ([4]; siRNA 50 nM and 100 nM): decreases | expression of DCAMKL1 ([4]; siRNA 50 nM and 100 nM): effectively inhibited

Source: patent US8936941B2, “Compositions useful for cancer detection and treatment, a cancer stem cell model, and methods of production and use thereof” (priority 2008, dated 2015)
